Source: patent US10273246B2, “Methods and compositions of substituted 5H-[1,2,5] oxadiazolo [3′,4′:5,6] pyrazino[2,3-B] indole analogs as inhibitors of β-catenin/T-cell factor protein-protein interactions” (University of Utah Research Foundation, priority 2015, dated 2019)
Like-named read-outs stand apart in the source and are kept apart here.

What was measured:
[1] = tested on: canonical Wnt signaling in colorectal cancer SW480 cells; test: TOPFlash luciferase reporter assay, SW480; assay type: cell-based; settings: Homo sapiens, SW480, 24 h, read-out: TOPFlash IC50 ± SD SW480
Experimental: (§1) FuGENE 6 (E2962, Promega) in a 96-well plate format was used for the transfection of HEK293 and SW480 cells according to the manufacturer's instructions. […] SW480 cells were co-transfected with 60 ng of the TOPFlash or FOPFlash reporter gene and 40 ng pCMV-RL normalization reporter. Cells were cultured in DMEM and 10% fatal bovine serum at 37° C. for 24 h, and different concentrations of inhibitors were then added. After 24 h, the luciferase reporter activity was measured using the Dual-Glo system (E2940, Promega). Normalized luciferase activity in response to the treatment with the inhibitors was compared with that obtained from the cells treated with DMSO. Experiments were performed in triplicate.

[2] = tested on: FOPFlash luciferase (reporter with eight mutant Tcf binding sites); assay type: cell-based, human
Experimental: as §1

HT29 cells = test: MTs cell viability assay, HT29; assay type: cell-based; settings: Homo sapiens, HT-29, 72 h, read-out: IC50 ± SD HT29
Experimental: (§2) Colorectal cancer cell lines, SW480, HT29, an HCT116, and human normal cell line HEK293 were seeded in 96-well plates at 4×10^3 cells/well, maintained overnight at 37° C., and incubated with the tested compounds at various concentrations. Cell viability was monitored after 72 h using a freshly prepared mixture of 1 part phenazine methosulfate (PMS, Sigma) solution (0.92 mg/mL) and 19 parts 3-(4,5-dimethylthiazol-2-yl)-5-(3-carboxymethoxyphenyl)-2-(4-sulfophenyl)-2H-tetrazolium (MTs, Promega) solution (2 mg/mL). Cells were incubated in 10 μL of this solution at 37° C. for 3 h, and A490 was measured. […] Experiments were performed in triplicate.

HCT116 cells = test: MTs cell viability assay, HCT116; assay type: cell-based, human; settings: Homo sapiens, HCT-116; MTs cell viability, 72 h; read-out: IC50 ± SD HCT116
Experimental: as §2

SW480 cells = test: MTs cell viability assay, SW480; assay type: cell-based, human; settings: Homo sapiens, SW480; MTs cell viability, 72 h; read-out: IC50 ± SD SW480
Experimental: as §2

β-catenin/Tcf4 PPI [3] = molecular target: T1, β-catenin/Tcf4 PPI (Homo sapiens, UniProt P35222); settings: Table 3, known inhibitors, footnotes a, b; read-out: Ki + SD FP; cited from earlier work
T1 sequence (P35222 138-686): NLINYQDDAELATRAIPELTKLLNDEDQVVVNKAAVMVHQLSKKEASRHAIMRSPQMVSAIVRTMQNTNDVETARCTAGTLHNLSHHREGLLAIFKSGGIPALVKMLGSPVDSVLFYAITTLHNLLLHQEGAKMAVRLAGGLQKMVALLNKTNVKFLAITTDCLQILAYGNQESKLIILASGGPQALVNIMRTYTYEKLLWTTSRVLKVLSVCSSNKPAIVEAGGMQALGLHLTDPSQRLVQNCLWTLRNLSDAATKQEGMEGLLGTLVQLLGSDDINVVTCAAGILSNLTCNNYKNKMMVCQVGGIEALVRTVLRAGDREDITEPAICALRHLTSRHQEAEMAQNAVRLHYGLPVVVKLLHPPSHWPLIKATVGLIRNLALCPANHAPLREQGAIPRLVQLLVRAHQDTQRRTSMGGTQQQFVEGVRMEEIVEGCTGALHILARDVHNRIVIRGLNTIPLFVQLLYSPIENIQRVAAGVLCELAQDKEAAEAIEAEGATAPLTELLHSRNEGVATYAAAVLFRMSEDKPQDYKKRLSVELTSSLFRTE

β-catenin/E-cadherin = molecular target: T2, β-catenin/E-cadherin (Homo sapiens, UniProt P35222); settings: FP selectivity assay, known inhibitors, footnotes a, b; read-out: Ki ± SD β-catenin/E-cadherin; cited from earlier work
T2 construct: Wild-type β-catenin and its mutants (residues 138-686) were cloned; 6xHis; made in house; host or cells: E. coli BL21 DE3
T2 sequence (P35222 138-686): T1 sequence (P35222 138-686)

β-catenin/APC-R3 = molecular target: T3, β-catenin/APC-R3 (Homo sapiens, UniProt P35222); settings: FP selectivity assay, known inhibitors, footnotes a, b; read-out: Ki ± SD β-catenin/APC-R3; cited from earlier work
T3 construct: Wild-type β-catenin and its mutants (residues 138-686) were cloned; 6xHis; made in house; host or cells: E. coli BL21 DE3
T3 sequence (P35222 138-686): T1 sequence (P35222 138-686)

β-catenin/Tcf4 = molecular target: T4, β-catenin/Tcf4 (Homo sapiens, UniProt P35222); settings: FP selectivity assay, known inhibitors, footnotes a, b; read-out: Ki ± SD β-catenin/Tcf4; cited from earlier work
T4 sequence (P35222 138-686): T1 sequence (P35222 138-686)

β-catenin/Tcf4 PPI [4] = molecular target: T1, β-catenin/Tcf4 PPI; settings: read-out: Ki ± SD FP; Table 8, resynthesized 18 and derivatives
Text: (§3) After β-catenin and fluorescein-Tcf4 form a protein-protein complex, the fluorophore is attached to a high-molecular-weight protein complex (≥60 kDa) and has a low rotational speed when it is excited by plane-polarized light. […] When an inhibitor completely disrupts the β-catenin/fluorescein-Tcf4 PPI, the fluorophore is only attached to Tcf4 (≤6 kDa), and the emitted light after excitation will be largely depolarized due to a high rotational speed of the fluorophore. AlphaScreen is a bead-based assay. […] On laser excitation at 680 nm, the photo sensitizers inside the donor beads convert ambient oxygen to a singlet oxygen state. Only when the donor and acceptor beads are brought within 200 nm can the singlet oxygen molecules diffuse to the acceptor beads, resulting in extensive emission at 570 nm.

β-catenin/Tcf4 PPI [5] = molecular target: T1, β-catenin/Tcf4 PPI; test: biochemical
Text: as §3

[6] = molecular target: T5, β-catenin/Tcf PPI in SW480 cells (Homo sapiens, UniProt P35222); test: Coimmunoprecipitation assay; assay type: cell-based; settings: SW480, 24 h
T5 construct: endogenous in cells; host or cells: SW480
T5 sequence (P35222 2-781 limits assumed): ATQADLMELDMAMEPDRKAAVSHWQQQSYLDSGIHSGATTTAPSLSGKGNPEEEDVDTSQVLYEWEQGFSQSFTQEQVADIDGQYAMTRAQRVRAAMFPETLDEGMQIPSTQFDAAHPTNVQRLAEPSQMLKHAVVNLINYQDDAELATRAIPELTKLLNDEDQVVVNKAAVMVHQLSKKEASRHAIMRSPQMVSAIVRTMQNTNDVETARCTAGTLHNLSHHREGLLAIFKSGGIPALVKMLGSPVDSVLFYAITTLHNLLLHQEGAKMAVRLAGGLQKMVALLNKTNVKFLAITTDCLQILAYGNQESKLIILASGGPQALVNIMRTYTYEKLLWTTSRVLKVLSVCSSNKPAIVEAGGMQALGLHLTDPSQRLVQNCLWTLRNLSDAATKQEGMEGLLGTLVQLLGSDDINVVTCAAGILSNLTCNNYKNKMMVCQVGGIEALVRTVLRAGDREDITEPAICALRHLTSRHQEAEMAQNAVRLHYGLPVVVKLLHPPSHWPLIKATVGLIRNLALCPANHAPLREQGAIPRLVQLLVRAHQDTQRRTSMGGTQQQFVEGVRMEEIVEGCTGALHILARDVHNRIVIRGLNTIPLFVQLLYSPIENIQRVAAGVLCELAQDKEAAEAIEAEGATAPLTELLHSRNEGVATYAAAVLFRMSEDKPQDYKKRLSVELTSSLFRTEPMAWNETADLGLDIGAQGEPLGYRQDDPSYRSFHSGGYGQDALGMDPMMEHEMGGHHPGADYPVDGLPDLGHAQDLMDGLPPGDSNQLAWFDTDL
Experimental: SW480 cells at 1×10^6/mL were treated with different concentrations of 18 for 24 h. Cells were lysed in buffer containing 50 mM Tris, pH 7.4, 150 mM NaCl, 1% Nonidet P-40, 2 mM EDTA, and protease inhibitors. The lysates were preabsorbed to A/G plus agarose (sc-2003, Santa Cruz Biotechnology, Inc.) at 4° C. for 1 h. Preadsorbed lysates were incubated with a specific primary antibody overnight at 4° C. A/G plus agarose was then added to the lysates mixture and incubated for 3 h. The beads were washed 5 times with the lysis buffer at 4° C. The bound protein was eluted by boiling in the SDS sample buffer and loaded onto 8% SDS polyacrylamide gel for electrophoretic analysis. Separated proteins were transferred onto nitrocellulose membranes for immunoblot analysis. The primary antibodies were against fl-catenin (610153, BD Biosciences) and Tcf4 (05-511, Millipore). IRDye 680LT goat anti-mouse IgG (827-11080, LiCOR) was used as the secondary antibody. The images were detected by the Odyssey Infrared Imaging System (LiCOR). Experiments were performed in duplicate.

[7] = tested on: cyclin D1, c-myc and β-catenin protein expression in SW480 cells; test: Western blot analysis; assay type: cell-based, human; settings: SW480, 24 h
Experimental: SW480 cells at 1×10^6 cells/mL were treated with different concentrations of 18 for 24 h. Cell were lysed in a buffer containing 50 mM Tris (pH 7.4), 150 mM NaCl, 1% Nonidet P-40, 0.5% sodium deoxycholate, 0.1% SDS, and protease inhibitors. After centrifugation at 12,000 rpm for 20 min at 4° C., the supernatant was loaded onto an 8% SDS polyacrylamide gel for electrophoretic analysis. Separated proteins were transferred onto nitrocellulose membranes for immunoblot analysis. The antibodies against c-myc (D84C12, Cell Signaling), cyclin D1 (sc-853, Santa Cruz Biotechnology, Inc.), and β-tubulin (sc-55529, Santa Cruz Biotechnology, Inc) were used. IRDye 680LT goat anti-mouse IgG (827-11080, LiCOR) or IRDye 800CW goat anti-rabbit IgG (827-08365, LiCOR) was used as the secondary antibody. The images were detected by the Odyssey Infrared Imaging System (LiCOR). The Western blot bands were quantified by LI-COR Image Studio Lite 4.0. Experiments were performed in duplicate.

[8] = tested on: Wnt/β-catenin target genes in SW480 cells
Experimental: Total RNAs were extracted with TRIzol (Ser. […] The threshold cycle (CT) values were normalized to that of internal reference GAPDH. The primer pairs for human GAPDH were forward: [NT] and reverse: [NT]; for human HPRT forward: [NT] and reverse: [NT]; for human AXIN2 forward: [NT] and reverse: [NT]; for human c-myc forward: [NT] and reverse: [NT]; and for human cyclin D1 forward: [NT] and reverse: [NT]. Experiments were performed in triplicate.

For `COc1ccc(/C=C2\SC(=S)N(CCCC(=O)O)C2=O)cc1OC` [Compound 9, reference compound], the IC50 [1] was 4 ± 0.39 µM, the “FOPFlash luciferase reporter activity” value ([2]; reference inhibitors) was “inhibited” and the IC50 (HT29 cells) was 290 ± 2.4 µM. The IC50 (HCT116 cells) was 180 ± 2.9 µM and the IC50 (SW480 cells) was 240 ± 2.5 µM.
In the case of `COC1=C(CC(C)OC(=O)Oc2ccc(O)cc2)C2c3c(c(O)cc(OC)c3-c3c(OC)cc(O)c4c3C2C(CC(C)OC(=O)c2ccccc2)=C(OC)C4=O)C1=O` (stereo not drawn) [Compound 1], the Ki (β-catenin/Tcf4 PPI [3]) is listed as 18 ± 2.1 µM, the Ki (β-catenin/E-cadherin) is listed as 38 ± 1.6 µM and the Ki (β-catenin/APC-R3) is listed as 110 ± 0.58 µM. The Ki (β-catenin/Tcf4) was 77 ± 9.3 µM.
`N#CCn1c2ccccc2c2nc3nonc3nc21` [Compound 34, 2-(5H-[1,2,5]Oxadiazolo[3′,4′:5,6]Pyrazino[2,3-B]Indol-5-yl)Acetonitrile] showed a Ki (β-catenin/Tcf4 PPI [4]) of 240 ± 14 µM and a Ki (β-catenin/Tcf4 PPI [5]) greater than 130 µM.
With `Nc1nonc1C(=O)N/N=C1/c2ccccc2-c2nc3nonc3nc21` [Compound 18, (Z)-4-Amino-N′-(9H-Indeno[1,2-B][1,2,5]Oxadiazolo[3,4-E]Pyrazin-9-ylidene)-1,2,5-Oxadiazole-3-Carbohydrazide] the “β-catenin/Tcf PPI in a cellular context” value [6] was “inhibits the β-catenin/Tcf PPI in a dose-dependent manner”, the “expression level of β-catenin” value [7] was “did not reduce” and the “expression of proteins cyclin D1 and c-myc” value [7] was “significantly reduced”. The “concentrations at which FOPFlash luciferase activity was inhibited” value ([2]; HEK293 and SW480 (FIG. 7), off-target effects) was no less than 5 µM, the mRNA expression inhibited ([8]; AXIN2, cyclin D1, c-myc, dose of 2 μM, SW480, 24 h) was “More than 50%” and the “expression of house-keeping gene HPRT” value ([8]; SW480) was “did not affect”. For the same compound, the “expression of AXIN2, cyclin D1, and c-myc (mRNA)” value ([8]; SW480, dose-dependent) was “down-regulated”.
